Results taken from patent publication US10512667B2, “Compositions and methods for treating conditions related to adrenocortical activity and/or excessive steroid production” (The Regents of the University of Michigan, priority 2017, dated 2019).
“Also recorded” adds a separate entry of the source.

Tests used:
[1] = system: BD140C cells; assay: Caspase 3/7 activity (Apo-ONE); format: cell-based
Description: (§1) The samples were incubated for 18 h at room temperature in the dark. The fluorescence was measured using a SpectraMax M5 microplate reader with a 0.5 s acquisition time.

[2] = system: H295R cells; assay: Caspase 3/7 activity (Apo-ONE); format: cell-based; settings: H295R cells
Description: as §1

[3] = system: BD140C cells; assay: Visualization of NBD-cholesterol esterification; format: cell-based; settings: compound 2 h then 2 h with NBD-cholesterol
Description: (§2) The cells were seeded in 96-well ibiTreat μ-Plates and allowed to adhere for 48 h prior to the start of each experiment. Cholesterol was detected in fixed cells by incubating with 100 μg/ml filipin III at 37 C for 2 h. The bound filipin III was imaged by fluorescence microscopy using 377/11 nm excitation and 447/60 nm emission wavelengths. Images were captured using either a 4× or a 60× objective. Cholesterol esterification was visualized by culturing the cells with 1 μM NBD-cholesterol for 2 h following incubation with the indicated compounds. NBD-cholesterol esters were imaged by fluorescence microscopy using 485/20 nm excitation wavelengths. Images were captured using either a 20× or a 60× objective.
(§3) The cells were seeded in 96-well ibiTreat μ-Plates (Ibidi) in 100 μl at a density of 50,000 cells per well. […] 5 μl of NBD-cholesterol was added to each well to produce a final concentration of 1 μM. When NBD-cholesterol is esterified and localized to cytoplasmic lipid droplets, it produces bright fluorescent foci in the cell. The inhibition of ACAT activity prevents fluorescent focus formation by NBD-cholesterol (see, e.g., Lada, et al., 2004 J Lipid Res, 45, 378-86). After 1.5 h, 5 μl of Hoechst 33342 was added to each well to produce a final concentration of 3 μg/ml. After 30 min, the medium was replaced with fresh medium. NBD-cholesterol esterification was visualized by fluorescence microscopy using either 485/20 nm (NBD) or 387/11 nm (Hoechst) excitation wavelengths and images were captured using either a 60× oil objective or a 20× objective.

[4] = system: H295R cells; assay: Visualization of NBD-cholesterol esterification; format: cell-based; settings: compound 2 h then 2 h with NBD-cholesterol, hydrochloride
Description: as §2, §3

[5] = system: adrenal cortex; settings: in vivo; cited from earlier work
[6] = molecular target: T1, MDR1 (Homo sapiens, UniProt P08183); assay: Doxorubicin accumulation / clearance in H295R cells; format: cell-based; settings: 25 μM doxorubicin, 2 h
T1 construct: measured the accumulation of doxorubicin in H295R cells; endogenous in cells; host or cells: H295R adrenocortical carcinoma cells
Description: The medium was removed and immediately replaced with 100 μl of fresh media and intracellular doxorubicin fluorescence was visualized by fluorescence microscopy using a 20× objective.

[7] = system: BD140C cells; assay: Visualization of cholesterol levels by filipin III binding; format: cell-based; settings: 4 h
How it was run: (§4)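 Cells adhered 48 h, treated with compounds, fixed in 4% paraformaldehyde 20 min, then stained with 100 μg/ml filipin III for 2 h at 37 C in the dark and imaged. Esterification visualized after 2 h culture with 1 μM NBD-cholesterol following compound incubation.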

[8] = system: H295R cells; assay: as above; format: cell-based; settings: H295R cells; for cholesterol level / accumulation (filipin III binding), compound alone: serum-containing medium
How it was run: as §4

[9] = system: SULT2A1; assay: Transcript measurement by qPCR in H295R cells; format: cell-based; settings: H295R cells cultured with ATR-101
Description: (§5) mRNA was isolated (Qiagen), and was reverse transcribed using the Transcriptor First Strand cDNA synthesis kit (Roche). The relative amounts of cDNAs corresponding to the indicated transcripts were quantified using qPCR assays with specific primers (Table 2).
(§6) H295R cells were seeded in 6-well tissue culture plates (Corning #3506) at a density of 5 X105 per well. After 48 h, the compound(s) indicated were added, and the cells were cultured for the indicated time. The cells were harvested in 1.35 ml culture medium with trypsin. The cells were collected by centrifugation and lysed in 350 μl of RLT buffer (Qiagen) with β-mercaptoethanol. mRNA extraction and DNase treatment were performed according to the manufacturer's protocol (Qiagen). All RNA samples had 260/280 ratios greater than 1.5. The same amount of RNA ranging from 0.1 to 0.5 μg was used for reverse transcription using the Roche Transcriptor First Strand cDNA synthesis kit (Roche #04897030001) using the manufacturer's protocol. SYBR Green I-based real-time qPCR assays were performed using a Roche LightCycler480 instrument. The levels of transcripts in different samples were normalized by the levels of RPL9 transcripts.

[10] = system: ABCA1; assay: Transcript measurement by qPCR in H295R cells; format: cell-based
Description: as §5, §6

[11] = system: HSD3B2; assay: Transcript measurement by qPCR in H295R cells; format: cell-based; settings: H295R cells cultured with ATR-101
Description: as §5, §6

[12] = system: ABCG1; assay: Transcript measurement by qPCR in H295R cells; format: cell-based
Description: as §5, §6

[13] = system: CYP17A1; assay: Transcript measurement by qPCR in H295R cells; format: cell-based; settings: H295R cells cultured with ATR-101
Description: as §5, §6

[14] = system: IDOL; assay: Transcript measurement by qPCR in H295R cells; format: cell-based; settings: within an hour after addition
Description: as §5, §6

[15] = system: CHOP; assay: Transcript measurement by qPCR in H295R cells; format: cell-based; settings: 4 h
Description: as §5, §6

[16] = system: ACC cell xenografts; settings: nude mice; cited from earlier work

CC(C)c1cccc(C(C)C)c1NC(=O)NCC1(c2ccc(N(C)C)cc2)CCCC1.Cl [ATR-101, N-(2,6-bis(1-methylethyl)phenyl)-N′-((1-(4-(dimethylamino)phenyl)cyclopentyl)methyl)urea hydrochloride]
caspase 3/7 activity, compound alone ([1]; 4 h): increased the caspase 3/7 activity
caspase 3/7 activity, compound alone ([1]; 24 h): increased the caspase 3/7 activities
time after ATR-101 addition at which caspase activation was detected ([2]; 100 μM ATR-101): 15 min
caspase 3/7 activity, compound alone ([2]; serum-containing medium, 4 h): increased the caspase 3/7 activity
caspase 3/7 activity, compound alone ([2]; serum-containing medium, 24 h): increased the caspase 3/7 activities
caspase 3/7 activity, compound alone ([2]; serum-free medium, 4 h): caused ATP depletion and caspases activation with the same potency
NBD-cholesterol esterification and accumulation in lipid droplets [3]: inhibited NBD-cholesterol esterification
NBD-cholesterol esterification and accumulation in lipid droplets [4]: inhibits NBD-cholesterol esterification; also recorded: eliminated both the intense foci and the diffuse fluorescence
adrenalytic activity [5]: has adrenalytic activity
doxorubicin accumulation ([6]; 20 μM compound): increased doxorubicin accumulation
doxorubicin accumulation in the presence of MβCD ([6]; 100 μM ATR-101, 4 mM MβCD): caused doxorubicin accumulation in the presence of MβCD
cholesterol level / accumulation (filipin III binding), compound alone [7]: caused cholesterol accumulation in or near the plasma membrane
cholesterol level / accumulation (filipin III binding), compound alone ([8]; 24 h): increase in intracellular cholesterol
cholesterol level / accumulation (filipin III binding), compound alone ([8]; up to 4 h, hydrochloride): caused cholesterol accumulation in or near the plasma membrane; also recorded: increase in cholesterol accumulation in the plasma membrane; also recorded: higher levels of filipin III binding to the plasma membrane
cholesterol level (filipin III binding), compound alone ([8]; serum-free medium containing apoA-I, 4 h, hydrochloride): increased the level of cholesterol in intracellular membranes; also recorded: increased the cholesterol levels; also recorded: higher cholesterol levels
SULT2A1 transcript level [9]: reduced
ABCA1 transcript level ([10]; 4 h): inhibited
ABCA1 transcript level ([10]; within an hour after addition): reduced
HSD3B2 transcript level [11]: reduced
ABCG1 transcript level ([12]; 4 h): inhibited
ABCG1 transcript level ([12]; within an hour after addition): reduced
CYP17A1 transcript level [13]: reduced
IDOL transcript level [14]: reduced
CHOP transcript level [15]: activated
establishment and growth of ACC cell xenografts [16]: inhibits the establishment and impedes the growth
